# Results reported in PubChem BioAssay (NCI).
#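 Grown in 96-well plates, cells were treated for 48 hours with each compound at five concentrations. Insufficient inhibition: endpoint recorded as highest concentration tested. GI50: concentration for 50% inhibition of growth. At the TGI there is no net growth.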
# Assays:
# Test in all cases: NCI tumour cell line growth inhibition, 48 h
# [1] = test system: CAKI-1 renal
# [2] = test system: DMS 114 small cell lung
# [3] = test system: HCC-2998 colon
# [4] = test system: KM20L2 colon
# [5] = test system: M19-MEL melanoma
# [6] = test system: NCI-H23 lung
# [7] = test system: RPMI-8226 leukemia
# [8] = test system: SNB-78 CNS
# [9] = test system: SR leukemia
# [10] = test system: T-47D breast
SMILES,TGI [1],TGI [2],TGI [3],TGI [4],TGI [5],TGI [6],TGI [7],TGI [8],TGI [9],GI50 [1],GI50 [3],GI50 [6],GI50 [7],GI50 [9],GI50 [10],TGI [10]
CC(=O)OC1CC2C(C)(C)C(=O)C=C[C@]2(C)C2CCC3(C)C(c4ccoc4)C(=O)C4OC43[C@]12C (some centres not stated),> 100 µM,33.3 µM,30.7 µM,32.1 µM,32.5 µM,31.2 µM,22.5 µM,> 100 µM,39.4 µM,,,,,,,
C=C1C2CC(OC(C)=O)C3(C)C(c4ccoc4)OC(=O)[C@@H](O)[C@]13OC1C[C@H](OC(C)=O)C(C)(C)[C@H](C(O)C(=O)OC)[C@]12C (some centres not stated),,> 100 µM,> 100 µM,> 100 µM,> 100 µM,> 100 µM,> 100 µM,> 100 µM,,,,,,,,
Nc1ccc(C(=O)CC2(O)C(=O)Nc3ccccc32)cc1 (configuration not stated),> 100 µM,> 100 µM,,> 100 µM,> 100 µM,> 100 µM,> 100 µM,> 100 µM,,,,,,,,
C=C[C@@H]1CCC/C=C/[C@@H]2C[C@H](O)C[C@H]2[C@H](O)/C=C/C(=O)O1,> 50.3 µM,,2.92 µM,,,16.6 µM,3.4 µM,,> 28 µM,1.89 µM,0.409 µM,0.475 µM,0.448 µM,1.64 µM,1.21 µM,4.28 µM
COc1cc(/C=C/C(=O)c2ccccc2O)ccc1OCCCOc1cc2c(cc1OC)C(=O)N1CCC[C@H]1C=N2,0.313 µM,,0.433 µM,,,0.151 µM,0.0758 µM,,0.0523 µM,0.0403 µM,0.138 µM,0.0363 µM,0.0282 µM,0.0184 µM,0.152 µM,
COc1cccc(/C=C2\N=C(Cl)OC2=O)c1O,> 100 µM,> 100 µM,> 100 µM,> 100 µM,,> 100 µM,> 100 µM,> 100 µM,> 100 µM,,,,,,,
CC1=NC(C)=C(/C(C)=N/NC(=O)c2ccccc2O)C(C)/C1=C(/C)NNC(=O)c1ccccc1O (configuration not stated),> 100 µM,44.1 µM,,> 100 µM,> 100 µM,26.9 µM,,> 100 µM,42.5 µM,,,,,,,
O=C(Nc1ccc(Cl)cc1)c1cc(NCc2cc(O)ccc2O)ccc1O,18.2 µM,,21.4 µM,,,31.4 µM,4.41 µM,,> 100 µM,4.09 µM,7.7 µM,11.8 µM,0.57 µM,3.84 µM,2.05 µM,5.24 µM
CCOc1ccc(Nc2ccnc3cc(Cl)ccc23)cc1,> 100 µM,,> 100 µM,,,> 100 µM,> 100 µM,,> 100 µM,> 100 µM,> 100 µM,> 100 µM,> 100 µM,14.7 µM,> 100 µM,> 100 µM
C=CCC1(CN(C)C)CC/C(=C\c2cc(OC)c(OC)c(OC)c2)C1=O (configuration not stated),> 100 µM,39.5 µM,35.5 µM,44.4 µM,> 100 µM,> 100 µM,59.6 µM,> 100 µM,49.1 µM,,,,,,,
O=c1cccccc1O,> 100 µM,,> 100 µM,,,> 100 µM,> 100 µM,,> 100 µM,,,,,,,> 100 µM
CON1C(=O)C2(CCCCC2)C(=O)C12C=CC(C)CC2 (configuration not stated),> 100 µM,> 100 µM,> 100 µM,> 100 µM,> 100 µM,> 100 µM,> 100 µM,> 100 µM,,,,,,,,
CSc1nc2c(nc(N)n2C2OC(CO)C(O)C(O)C2O)c(=O)[nH]1 (configuration not stated),> 100 µM,> 100 µM,> 100 µM,> 100 µM,> 100 µM,> 100 µM,,> 100 µM,> 100 µM,,,,,,,
C[C@]12CC[C@@H]3c4ccc(O)cc4CC[C@H]3[C@@H]1CC(Cc1ccccc1)(Cc1ccccc1)C2=O,45.3 µM,,14.2 µM,,,28.2 µM,23.5 µM,,36.1 µM,25.6 µM,4.04 µM,14.3 µM,5.57 µM,4.87 µM,11 µM,34.6 µM
NCCCNCc1c2ccccc2c(CNCCCN)c2ccccc12,> 100 µM,37.8 µM,30.9 µM,53.4 µM,35.4 µM,49.7 µM,,60.1 µM,,,,,,,,
Cc1cc2[nH]c(=O)c3c4ncccc4cn3c2cc1C,> 100 µM,,7.97 µM,,,> 100 µM,7.61 µM,,6.16 µM,3.21 µM,2.59 µM,8.86 µM,2.66 µM,2.17 µM,2.37 µM,> 100 µM
CC(C)(C)c1cc[n+](C[n+]2ccc(C(C)(C)C)cc2)cc1,> 100 µM,,> 100 µM,,,> 100 µM,> 100 µM,,> 100 µM,,,,,,,> 100 µM
NC(=O)c1ccc(I)c([N+](=O)[O-])c1,> 57.4 µM,,> 100 µM,,,> 100 µM,> 100 µM,,> 100 µM,32.2 µM,50.4 µM,76.1 µM,50.1 µM,32.8 µM,35.8 µM,> 100 µM
O=C(O)C(Cc1ccccc1)N=Cc1nc(-c2ccccc2)oc1O (configuration not stated),> 100 µM,,> 100 µM,> 100 µM,> 100 µM,> 100 µM,> 100 µM,> 100 µM,> 100 µM,,,,,,,
COc1cc(/C=C2\C[C@H]3[C@@H]4CC=C5C[C@@H](O)CC[C@]5(C)[C@H]4CC[C@]3(C)[C@H]2O)ccc1OCCN1CCCCC1,3.36 µM,,1.64 µM,,,3.21 µM,1.98 µM,,> 50 µM,1.74 µM,0.85 µM,1.21 µM,0.776 µM,1.11 µM,2.05 µM,16.2 µM
O=c1oc2ccc(F)cc2c(=O)n1-c1ccc(I)cc1F,2.19 µM,,9.85 µM,,,1.59 µM,0.745 µM,,11.1 µM,0.337 µM,3.1 µM,0.311 µM,0.239 µM,0.388 µM,0.29 µM,9.24 µM
